Source: US20120004228A1, “Bis Aromatic Compounds for Use as LTC4 Synthase Inhibitors” (BIOLIPOX AB, priority 2009, published 2012)

The compounds below were run against T1, Recombinant human LTC4 synthase (Homo sapiens, UniProt Q16873) (assay: In vitro LTC4 synthase assay (LTA4 to LTC4, HTRF detection)).
T1 construct: made in house; host or cells: Pichia pastoris ('Piccia pastoralis' [sic])
T1 sequence (Q16873 1-150): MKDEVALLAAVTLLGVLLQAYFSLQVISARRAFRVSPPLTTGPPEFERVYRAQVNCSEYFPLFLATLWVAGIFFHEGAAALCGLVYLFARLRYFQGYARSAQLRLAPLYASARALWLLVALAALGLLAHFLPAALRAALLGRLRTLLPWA
Format: biochemical
Description: In the assay, LTC4 synthase catalyses the reaction where the substrate LTA4 is converted to LTC4. Recombinant human LTC4 synthase is expressed in Piccia pastoralis and the purified enzyme is dissolved in 25 mM tris-buffer pH 7.8 supplemented with 0.1 mM glutathione (GSH) and stored at −80° C. The assay is performed in phosphate buffered saline (PBS) pH 7.4 and 5 mM GSH in 384-well plates.
The following is added chronologically to each well:
1. 48 μL LTC4 synthase in PBS with 5 mM GSH. The total protein concentration in this solution is 0.5 μg/mL. 2. 1 μL inhibitor in DMSO (final concentration 10 μM). 3. Incubation of the plate at room temperature for 10 min. 4. 1 μL LTA4 (final concentration 2.5 μM). 5. Incubation of the plate at room temperature for 5 min. 6. 10 μL of the incubation mixture is analysed using homogenous time resolved fluorescent (HTRF) detection.

Q: With `CN(c1ccc(Cl)cc1)c1ccc(C(=O)c2cc(Nc3ccc(Cl)cc3)cc(C(=O)O)c2)nc1` [9:4, 3-{5-[(4-Chlorophenyl)(methyl)amino]picolinoyl}-5-(4-chlorophenylamino)-benzoic acid] as the compound, how does the IC50 read?
A: 70 nM

Q: For `CN(c1ccc(Cl)cc1)c1ccc(C(=O)c2cc(Nc3ccccc3Cl)cc(C(=O)O)c2)nc1` [9:5, 3-{5-[(4-Chlorophenyl)(methyl)amino]picolinoyl}-5-(2-chlorophenylamino)-benzoic acid], which IC50 is on record?
A: 160 nM

Q: `CN(c1ccc(Cl)cc1)c1ccc(C(=O)c2cc(C(=O)O)cc(N(C)c3ccccc3)c2)nc1` [9:6, 3-{5-[(4-Chlorophenyl)(methyl)amino]picolinoyl}-5-[methyl(phenyl)amino]-benzoic acid] was tested. Which IC50 did it give?
A: 33 nM

Q: With `C#CCN(c1ccccc1)c1cc(C(=O)O)cc(C(=O)c2ccc(N(C)c3ccc(Cl)cc3)cn2)c1` [9:8, 3-{5-[(4-Chlorophenyl)(methyl)amino]picolinoyl}-5-[phenyl(prop-2-ynyl)amino]-benzoic acid] as the compound, how does the IC50 read?
A: 43 nM

Q: `COc1ccc(CN(C)c2cc(C(=O)O)cc(C(=O)c3ccc(N(C)c4ccc(Cl)cc4)cn3)c2)cc1` [9:9, 3-{5-[(4-Chlorophenyl)(methyl)amino]picolinoyl}-5-[(4-methoxybenzyl)(methyl)-amino]benzoic acid] was tested. Which IC50 did it give?
A: 123 nM

Q: With `CN(Cc1cccc(Cl)c1)c1cc(C(=O)O)cc(C(=O)c2ccc(N(C)c3ccc(Cl)cc3)cn2)c1` [9:10, 3-[(3-Chlorobenzyl)(methyl)amino]-5-{5-[(4-chlorophenyl)(methyl)amino]-picolinoyl}benzoic acid] as the compound, how does the IC50 read?
A: 75 nM

Q: With `CN(c1ccc(Cl)cc1)c1ccc(C(=O)c2cc(Nc3ccccc3)cc(C(=O)O)c2)nc1` [9:11, 3-{5-[(4-Chlorophenyl)(methyl)amino]picolinoyl}-5-(phenylamino)benzoic acid] as the compound, how does the IC50 read?
A: 61 nM

Q: `CN(Cc1ccc(Cl)cc1)c1cc(C(=O)O)cc(C(=O)c2ccc(N(C)c3ccc(Cl)cc3)cn2)c1` [9:12, 3-((4-Chlorobenzyl)(methyl)amino)-5-{5-[(4-chlorophenyl)(methyl)amino]-picolinoyl}benzoic acid] was tested. Which IC50 did it give?
A: 170 nM

Q: For `CN(c1ccc(Cl)cc1)c1ccc(C(=O)c2cc(C(=O)O)cc(N3CCc4ccccc4C3)c2)nc1` [9:13, 3-{5-[(4-Chlorophenyl)(methyl)amino]picolinoyl}-5-(1,2,3,4-tetrahydroiso-quinolin-2-yl)benzoic acid], which IC50 is on record?
A: 531 nM

Q: For `CN(Cc1ccc2c(c1)OCO2)c1cc(C(=O)O)cc(C(=O)c2ccc(N(C)c3ccc(Cl)cc3)cn2)c1` [9:14, 3-{5-[(4-Chlorophenyl)(methyl)amino]picolinoyl}-5-[(3,4-methylenedioxy-benzyl)(methyl)amino]benzoic acid], which IC50 is on record?
A: 103 nM

Q: For `CN(c1ccc(Cl)cc1)c1ccc(C(=O)c2cc(C(=O)O)cc(N(CC3(C)COC3)c3ccccc3)c2)nc1` [9:15, 3-{5-[(4-Chlorophenyl)(methyl)amino]picolinoyl}-5-{[(3-methyloxetan-3-yl)-methyl](phenyl)amino}benzoic acid], which IC50 is on record?
A: 50 nM

Q: `CN(c1ccc(Cl)cc1)c1ccc(C(=O)c2cc(C(=O)O)cc(N(C(=O)CC(C)(C)C)c3ccccc3)c2)nc1` [9:18, 3-{5-[(4-Chlorophenyl)(methyl)amino]picolinoyl}-5-(3,3-dimethyl-N-phenyl-butylamido)benzoic acid] was tested. Which IC50 did it give?
A: 160 nM

Q: `CC(=O)N(c1ccccc1)c1cc(C(=O)O)cc(C(=O)c2ccc(N(CC3CC3)c3ccc(Cl)cc3)cn2)c1` [9:19, 3-{5-[(4-Chlorophenyl)(cyclopropylmethyl)amino]picolinoyl}-5-(N-phenylacet-amido)benzoic acid] was tested. Which IC50 did it give?
A: 40 nM

Q: For `O=C(O)c1cc(Nc2ccccc2)cc(C(=O)c2ccc(N(CC3CC3)c3ccc(Cl)cc3)cn2)c1` [9:20, 3-{5-[(4-Chlorophenyl)(cyclopropylmethyl)amino]picolinoyl}-5-(phenylamino)-benzoic acid], which IC50 is on record?
A: 30 nM

Q: For `COc1cccc(N(C)c2cc(C(=O)O)cc(C(=O)c3ccc(N(C)c4ccc(Cl)cc4)cn3)c2)c1` [9:21, 3-{5-[(4-Chlorophenyl)(methyl)amino]picolinoyl}-5-[(3-methoxyphenyl)(methyl)-amino]benzoic acid], which IC50 is on record?
A: 274 nM

Q: How did the IC50 turn out when `COc1ccccc1N(C)c1cc(C(=O)O)cc(C(=O)c2ccc(N(C)c3ccc(Cl)cc3)cn2)c1` [9:22, 3-{5-[(4-Chlorophenyl)(methyl)amino]picolinoyl}-5-[(2-methoxyphenyl)(methyl)-amino]benzoic acid] was run?
A: 366 nM

Q: How did the IC50 turn out when `COc1ccccc1N(C(C)=O)c1cc(C(=O)O)cc(C(=O)c2ccc(N(C)c3ccc(Cl)cc3)cn2)c1` [9:24, 3-{5-[(4-Chlorophenyl)(methyl)amino]picolinoyl}-5-[N-(2-methoxyphenyl)-acetamido]benzoic acid] was run?
A: 932 nM

Q: `COc1ccc(N(CC2(C)COC2)c2cc(C(=O)O)cc(C(=O)c3ccc(N(C)c4ccc(Cl)cc4)cn3)c2)cc1` [9:25, 3-{5-[(4-Chlorophenyl)(methyl)amino]picolinoyl}-5-{(4-methoxyphenyl)-[(3-methyloxetan-3-yl)methyl]amino}benzoic acid] was tested. Which IC50 did it give?
A: 88 nM

Q: Which IC50 does the source give for `COCC(=O)N(c1ccccc1)c1cc(C(=O)O)cc(C(=O)c2ccc(N(C)c3ccc(Cl)cc3)cn2)c1` [9:26, 3-{5-[(4-Chlorophenyl)(methyl)amino]picolinoyl}-5-(2-methoxy-N-phenylacet-amido)benzoic acid] here?
A: 466 nM

Q: How did the IC50 turn out when `COc1ccc(N(C)c2cc(C(=O)O)cc(C(=O)c3ccc(N(C)c4ccc(Cl)cc4)cn3)c2)cc1` [9:28, 3-{5-[(4-Chlorophenyl)(methyl)amino]picolinoyl}-5-[(4-methoxyphenyl)(methyl)-amino]benzoic acid] was run?
A: 137 nM

Q: With `CN(c1ccc(Cl)cc1)c1ccc(C(=O)c2cc(Nc3ccc4c(c3)OCO4)cc(C(=O)O)c2)nc1` [9:29, 3-{5-[(4-Chlorophenyl)(methyl)amino]picolinoyl}-5-(3,4-methylenedioxy-phenylamino)benzoic acid] as the compound, how does the IC50 read?
A: 420 nM

Q: `CN(c1ccc(Cl)cc1)c1ccc(C(=O)c2cc(C(=O)O)cc(N(C)c3ccc4c(c3)OCO4)c2)nc1` [9:30, 3-{5-[(4-Chlorophenyl)(methyl)amino]picolinoyl}-5-[(3,4-methylenedioxy-phenyl)(methyl)amino]benzoic acid] was tested. Which IC50 did it give?
A: 197 nM

Q: `COc1cccc(Nc2cc(C(=O)O)cc(C(=O)c3ccc(N(C)c4ccc(Cl)cc4)cn3)c2)c1` [9:31, 3-{5-[(4-Chlorophenyl)(methyl)amino]picolinoyl}-5-(3-methoxyphenylamino)-benzoic acid] was tested. Which IC50 did it give?
A: 525 nM

Q: Which IC50 does the source give for `COc1ccc(Nc2cc(C(=O)O)cc(C(=O)c3ccc(N(C)c4ccc(Cl)cc4)cn3)c2)cc1` [9:32, 3-{5-[(4-Chlorophenyl)(methyl)amino]picolinoyl}-5-(4-methoxyphenylamino)-benzoic acid] here?
A: 353 nM

Q: `CN(c1ccc(Cl)cc1)c1ccc(C(=O)c2cc(Nc3ccc4c(c3)OCCO4)cc(C(=O)O)c2)nc1` [9:33, 3-{5-[(4-Chlorophenyl)(methyl)amino]picolinoyl}-5-(3,4-ethylenedioxy-phenylamino)benzoic acid] was tested. Which IC50 did it give?
A: 463 nM

Q: With `CN(c1ccc(Cl)cc1)c1ccc(C(=O)c2cc(C(=O)O)cc(N(C)c3ccc4c(c3)OCCO4)c2)nc1` [9:34, 3-{5-[(4-Chlorophenyl)(methyl)amino]picolinoyl}-5-[(3,4-ethylenedioxy-phenyl)(methyl)amino]benzoic acid] as the compound, how does the IC50 read?
A: 216 nM
